Assays:
[1] = Inhibitory power on the hydroxyl radical (deoxyribose oxidation, EDTA/iron, H2O2, thiobarbituric acid/MDA detection); format: biochemical; conditions: antioxidant 10 mM; deoxyribose substrate
Text: Experimental procedure described by J. M. C. Gutteridge in Biochemistry Journal, vol 224 (1984), p. 761-767: oxidation substrate: deoxyribose, system of production of the hydroxyl radical OH.:
Detection: thiobarbituric acid/mondialdehyde (MDA)
Antioxidant of reference: dipeptide β-alanyl-L-histidine (sensitive to enzymatic deactivation)

[2] = Inhibitory power on the superoxide anion (xanthine oxydase/hypoxanthine, cytochrome C reduction at 550 nm); format: biochemical; conditions: for ability to inhibit the superoxide anion / reduction of cytochrom c (in words): enzymatic system generating superoxide anion
Text: System of production of superoxide anion:xanthine oxydase/hypoxanthine (absence of iron).
The superoxide anion is a reducing substance. It is more especially able to reduce a substrate, the cytochrome C. Its reduction is followed with ultraviolet spectrophotometry to 550 nm.
The percentage of inhibition is described as follows: […]

[3] = test system: human monocytes; test: Cell proliferation of a homogenous population of human monocytes (tritiated thymidine incorporation); format: cell-based
Text: In order to specify the pseudodipeptides mode of action, a second experiment has been carried out on an homogenous population of human monocytes.
Cell proliferation has been evaluated the same way as previously: […]

[4] = test system: murine splenocytes; test: Immunostimulating power: proliferation of murine splenocytes (tritiated thymidine incorporation); format: cell-based; conditions: for stimulation index (IS): mean of three measurements
Text: Then experimental procedure is extracted from: J. Kunert-Radek, H. Stepien, K. Lyson and M. Pawlikowki--"Effects of calcium channel modulators on the proliferation of mouse spleen lymphocytes in vitro"--Agents and Actions, vol. 29 Nos 3-4 (1990), p. 254-258.
The cell proliferation is followed by the measurement of the incorporation rate of the tritiated thymidine in the cells, expressed in number of desintegrations per mn, deduced from the background noise.
The results obtained with an immunostimulator of reference, the concanavaline A, are given for comparison.
The immunostimulating effect is expressed with a stimulation index (SI). [formula] The values correspond to the mean value of three measurements.

N[C@@H](CCC(=O)O)C(=O)NCCc1c[nH]cn1 [L-glutamyl-histamine, L-Glutamyl-histamine]
% inhibiton (hydroxyl radical OH.) [1]: 0% | % of inhibition (superoxide anion, cytochrome C reduction) ([2]; 1 mM): 3,5% | % of inhibition (superoxide anion, cytochrome C reduction) ([2]; 5 mM): 14% | % of inhibition (superoxide anion, cytochrome C reduction) ([2]; 10 mM): 24% | % of inhibition (superoxide anion, cytochrome C reduction) ([2]; 20 mM): 35% | ability to inhibit the superoxide anion / reduction of cytochrom c (in words) [2]: strongly inhibit | stimulation index (IS) ([3]; 2.50 μg/ml): 8.23 | stimulation index (IS) ([3]; 5.00 μg/ml): 39.80 | stimulation index (IS) ([3]; 10.00 μg/ml): 23.50 | stimulation index (IS) ([3]; 25.00 μg/ml): 2.50 | average factor of activity versus concanavaline A ([3]; human monocytes): 1.34 | stimulation index (IS) ([4]; 2.5 μg/ml): 7.8 | stimulation index (IS) ([4]; 5.0 μg/ml): 42.7 | stimulation index (IS) ([4]; 10.0 μg/ml): 42.1 | stimulation index (IS) ([4]; 25.0 μg/ml): 5.6 | concentration of maximal immunostimulating effect ([4]; murine splenocytes): 5 µg/mL

O=C(NCCc1c[nH]cn1)[C@@H]1CCCN1 [L-prolyl-histamine]
% inhibiton (hydroxyl radical OH.) [1]: 62% | ability to inhibit the superoxide anion / reduction of cytochrom c (in words) [2]: do not have the ability to inhibit

NCCC(=O)N[C@@H](Cc1c[nH]cn1)C(=O)O [β-alanyl-L-histidine, reference compound]
% inhibiton (hydroxyl radical OH.) [1]: 38% | ability to inhibit the superoxide anion / reduction of cytochrom c (in words) [2]: do not have the ability to inhibit

concanavaline A [reference compound]
stimulation index (IS) ([3]; 2.50 μg/ml): 4.82 | stimulation index (IS) ([3]; 5.00 μg/ml): 29.60 | stimulation index (IS) ([3]; 10.00 μg/ml): 21.10 | stimulation index (IS) ([4]; 2.5 μg/ml): 8.3 | stimulation index (IS) ([4]; 5.0 μg/ml): 33.4 | stimulation index (IS) ([4]; 10.0 μg/ml): 61.5 | stimulation index (IS) ([4]; 25.0 μg/ml): 4.3
